Source: patent US7470821B2, “Aldolase-inhibiting aromatic compounds” (Valorisation-Recherche, Limited Partnership, priority 2003, dated 2008)
Several values for one entry are separate records, joined by “and”; a condition that tells them apart may be missing. Equal entries are not always repeated. Where two headings read alike, the source gives them in different places.

Tests used:
[1] = target: T1, native (wild-type) rabbit muscle aldolase (Oryctolagus cuniculus, UniProt P00883); experiment: UV-visible differential spectroscopy (method A) of aldolase-inhibitor complex formation; assay type: binding; conditions: for ΔA relative to 432 nm / kapp: wild-type; for kapp: 431 nm
T1 construct: made in house
T1 sequence (P00883 2-364): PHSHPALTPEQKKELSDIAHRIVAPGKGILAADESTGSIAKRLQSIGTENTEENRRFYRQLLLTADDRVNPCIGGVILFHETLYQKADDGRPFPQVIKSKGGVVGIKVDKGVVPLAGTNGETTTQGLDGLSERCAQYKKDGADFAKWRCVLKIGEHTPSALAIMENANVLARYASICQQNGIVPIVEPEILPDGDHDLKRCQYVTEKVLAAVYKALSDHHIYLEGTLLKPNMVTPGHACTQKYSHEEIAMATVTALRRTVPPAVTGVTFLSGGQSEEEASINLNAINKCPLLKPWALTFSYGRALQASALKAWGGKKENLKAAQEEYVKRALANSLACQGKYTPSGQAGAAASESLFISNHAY
Experimental: Absorption spectra are measured using a Cary 1E Varian spectrophotometer at 25° C. The same TEA buffer is used for titrations and activity analyses. Absorption spectra are measured by two different methods, in particular as described in Gefflaut T. et al., 1986 (Bioorg. Med. Chem., 4:2043-2054) and Blonski C. et al., 1997 (Biochem J. 323:71-77).
For method A, absorption spectra are recorded as a function of time, between 250 and 500 nm, or at wavelengths corresponding to maximum or minimum absorption. Measurements are begun by adding FHN-P at varying final concentrations (0.1-1 mM) in the TEA buffer containing a fixed concentration of aldolase (10 μM of subunits). Measured absorption spectra for the enzyme complex are corrected using the absorbance of the buffer, the FHN—P, and the enzyme (measured separately). The differential absorption spectra thus obtained are used to calculate the value of the constants that define the formation of the aldolase-inhibitor complex.
The apparent first-order rate constant (kapp) and the maximum threshold variations of absorption (ΔAmax) are obtained for each test by applying the slow-binding absorption data to the first-order kinetic equation (or to both first-order kinetic mechanisms). The dissociation constant (Kd) for the Schiff base formed between the FHN-P and the aminocaproic acid is obtained from the absorption differences calculated at equilibrium by using the equation eqn.(2). The value of the dissociation constant (Ki) for the rapidly formed EI complex and that of the constant k2 correspond to the slow formation of the EI* complex resulting from analysis of the values of the first-order constants based on the equations eqn.(1) or eqn.(3).
The slight differences in band positions with the reaction model may be attributed to differences in the FHN-P protein environment in comparison to the model system. The changing spectra of absorbance differences coincides with two distinct first-order mechanisms. The rapid kinetics phase can be seen in a more significant change in absorbance and saturating behavior at a high inhibitor concentration, correlated with a total loss of enzyme activity. A slow kinetics phase can also be seen when the analyses are carried out at saturating concentrations of hexitol-P2 (10 mM). This slow kinetics phase, which corresponds to a constant thirty times weaker and which contributes to one-fourth of the final absorbance variation is not linked to the inhibition observed. At these saturating concentrations, the molar absorption coefficients relative to the linked FHN-P are calculated assuming that the for active aldolase sites are occupied: Δε431=3600±200 M^−1.cm^−1; Δε376=−2140±110 M^−1.cm^−1; Δε293=12480±650 M^−1.cm^−1; and Δε268=5080±250 M^−1.cm^−1.
Residues of lysine 106, 146 and 229 residues are located at the active aldolase sites and thus are candidates for causing inactivation by forming a Schiff base with the FHN-P. In order to identify which lysine is responsible for the differential absorbances in the presence of FHN-P, sporadic mutations of these lysine residues were created and named: K107M (Research Collaboratory for Structural Bioinformatics Protein Databank), K146M (Blonski C. et al., 1997, Biochem. J. 323:71-77) and […] (Research Collaboratory for Structural Bioinformatics Protein Databank). […] UV-visible differential spectroscopy (method A) was used to examine formation of the enzyme complex for each sporadic mutation in the presence of a fixed concentration of FHN-P (300 μM).

[2] = Titration of FHN-P by aminocaproic acid, Schiff base model reaction (method B); conditions: 25° C
Experimental: Method B is used to titrate FHN-P by aminocaproic acid. For each analysis of TEA buffer containing a fixed concentration of FHN-P (10 μM), aminocaproic acid is added to obtain varying final concentrations (0.01-0.2 M). The differential absorption spectra, corresponding to the formation of a Schiff base, are recorded at different time intervals, then corrected with absorbance of the buffer, the aminocaproic acid and FHN-P (measured separately).
The apparent first-order rate constant (kapp) and the maximum threshold variations of absorption (ΔAmax) are obtained for each test by applying the slow-binding absorption data to the first-order kinetic equation (or to both first-order kinetic mechanisms). The dissociation constant (Kd) for the Schiff base formed between the FHN-P and the aminocaproic acid is obtained from the absorption differences calculated at equilibrium by using the equation eqn.(2). […]
The FHN-P and the ε-amino group of aldolase lysine residues were taken as the model for formation of the Schiff base, with the reaction of FHN-P (10 μM) with aminocaproic acid […] as a reference, and which was monitored by UV-visible differential spectroscopy. […]

[3] = formation of EI* complex, UV-visible differential spectroscopy
[4] = FHN-P 300 μM, first (rapid) phase
[5] = FHN-P 300 μM, second (slow) phase

In the case of `O=Cc1c(O)ccc2cc(OP(=O)(O)O)ccc12` [FHN-P, 5-formyl-6-hydroxy-2-naphthylphosphate], the Ki ([1]; EI complex, UV-visible differential spectroscopy, FHN-P 0.1-1 mM, aldolase 10 μM subunits, 25° C, read-out: Ki) is reported as 125 ± 25 µM, the Ki ([1]; calculated from the spectroscopy results, read-out: global inhibition constant Ki*) is reported as 0.025 µM and ~0.025 µM and the k2 [1, 3] is reported as 0.067 ± 0.004 min⁻¹. The t1/2 [1, 3] was about 6 min, the “stoichiometry of FHN-P linked per tetrameric aldolase” value ([1]; maximum inhibition, EI* complex) was 3.9-4.2 mols of FHN-P linked per tetrameric aldolase mole and the Residual specific activity ([1]; wild-type aldolase, FHN-P 300 μM) was “ud (undetected)”. For the same compound, the “ΔA relative to 432 nm” value [1, 4] was 100%, the kapp [1, 4] was 0.045 ± 0.0025 min⁻¹ and the “ΔA relative to 432 nm” value [1, 5] was 25%. For the same compound, the kapp [1, 5] was 0.0015 ± 0.00035 min⁻¹, the “second-order constant k2nd” value ([2]; FHN-P 10 μM with aminocaproic acid) was 0.002 ± 0.00017 M⁻¹ s⁻¹ and the Kd ([2]; Schiff base, TEA buffer, read-out: dissociation constant Kd of FHN-P-aminocaproic acid) was 16000 ± 3000 µM.
